Laboratory results from patent publication US8192962B2, “Processes for detecting toxic substances” (Daikin Industries, Ltd., priority 2001, dated 2012).

System: Metabolism protein genes
Assay: DNA chip mRNA expression in yeast, metabolism protein genes (Table 7)
Assay type: cell-based, Saccharomyces cerevisiae S288C
Description: Yeast (Saccharomyces cerevisiae S288C (α SUC2mal mel gap2 CUP1)) were incubated at 25° C. on YPD medium (yeast extract 1%, polypepton 2%, glucose 2%). One of toxic chemical substances was added to the cells at logarithmic growth phase, and the cells were further incubated for two hours. Cells were cultured without any chemical substance in the same condition, and were used as control. Concentrations of the chemical substances were defined to inhibit the growth of the yeast but not lead to death.
After completion of the incubation, the culture was centrifuged to collect the cells. To the cells, sodium acetate buffer (50 mM sodium acetate, 10 mM EDTA, 1% SDS) was added, and the mixture was shaken at 65° C. for five minutes, followed by returning to room temperature, and obtaining the supernatant, of which the procedures were repeated two times. To the supernatant, ½ amount of a solution of phenol/chloroform was added, and the mixture was centrifuged to give a supernatant, which was added with an equal amount of chloroform, and the mixture was centrifuged to give a supernatant. To the supernatant, an equal amount of isopropanol containing 0.3 M sodium acetate was added, and the mixture was allowed to stand at room temperature for 30 minutes, after which the mixture was centrifuged to give a sediment of the whole RNAs. Seventy % ethanol was added to the sediment, and the mixture was again centrifuged to give a sediment, which was then dried and dissolved in water. mRNA was isolated from the whole RNAs as followings. In view of the fact that a poly A chain is attached to the 3′ terminus of mRNA, a polynucleotide having a poly T structure which was immobilized on the surface of latex beads was used to trap the mRNA, and then the mRNA was washed and eluted with spine column (Oligotex-dT30<Super>mRNA Purification Kit, Takara). Reverse transcription of the mRNA was conducted with a reverse transcriptase (Super Script II Reverse Transcriptase; catalogue No. 18064-014, GibcoBRL) using fluorescence-labeled nucleotides to give cDNAs that were introduced with Cy3-dUTP or Cy5-dUTP during the reverse transcription.
The labeled cDNAs were dissolved in TE buffer (10mM Tris-HCl/1 mM EDTA, pH8.0), and the solution was dropped on the DNA chip containing the whole genes of yeast (DNA Chip Research Inc. Japan) so that the cDNAs were hybridized on the DNA chip at 65° C. for over 12 hours. The fluoresces intensity of the DNA chip was read with a scanner, and the ratio relative to the fluorescence intensity resulting from the absence of chemical substance was estimated as the following, which is shown in Tables 1 to 9: […]

N#Cc1c(Cl)c(Cl)c(Cl)c(C#N)c1Cl [(9), 2,4,5,6-tetrachloro-1,3-benzenedicarbonitrile]
The level of expressed mRNA in the presence of chemical substance/The level of expressed mRNA in the absence of chemical substance (yeast gene YAL012W): 4.7
The level of expressed mRNA in the presence of chemical substance/The level of expressed mRNA in the absence of chemical substance (yeast gene YAL038W): 0.1
The level of expressed mRNA in the presence of chemical substance/The level of expressed mRNA in the absence of chemical substance (yeast gene YAL044C): 0.4
The level of expressed mRNA in the presence of chemical substance/The level of expressed mRNA in the absence of chemical substance (yeast gene YAL054C): 8.9
The level of expressed mRNA in the presence of chemical substance/The level of expressed mRNA in the absence of chemical substance (yeast gene YAR071W): 0.3
The level of expressed mRNA in the presence of chemical substance/The level of expressed mRNA in the absence of chemical substance (yeast gene YBL001C): 1.5
The level of expressed mRNA in the presence of chemical substance/The level of expressed mRNA in the absence of chemical substance (yeast gene YBL033C): 6.6
The level of expressed mRNA in the presence of chemical substance/The level of expressed mRNA in the absence of chemical substance (yeast gene YBL086C): 3.3
level of expressed mRNA in the presence/in the absence of chemical substance (yeast gene YBR003W): 1.0
level of expressed mRNA in the presence/in the absence of chemical substance (yeast gene YBR011C): 2.2
The level of expressed mRNA in the presence of chemical substance/The level of expressed mRNA in the absence of chemical substance (yeast gene YBR014C): 1.3
The level of expressed mRNA in the presence of chemical substance/The level of expressed mRNA in the absence of chemical substance (yeast gene YBR023C): 0.3
The level of expressed mRNA in the presence of chemical substance/The level of expressed mRNA in the absence of chemical substance (yeast gene YBR029C): 2.0
The level of expressed mRNA in the presence of chemical substance/The level of expressed mRNA in the absence of chemical substance (yeast gene YBR035C): 2.2
The level of expressed mRNA in the presence of chemical substance/The level of expressed mRNA in the absence of chemical substance (yeast gene YBR068C): 0.8
The level of expressed mRNA in the presence of chemical substance/The level of expressed mRNA in the absence of chemical substance (yeast gene YBR183W): 0.4
The level of expressed mRNA in the presence of chemical substance/The level of expressed mRNA in the absence of chemical substance (yeast gene YBR222C): 0.7
The level of expressed mRNA in the presence of chemical substance/The level of expressed mRNA in the absence of chemical substance (yeast gene YBR256C): 18.1
The level of expressed mRNA in the presence of chemical substance/The level of expressed mRNA in the absence of chemical substance (yeast gene YBR296C): 0.4
The level of expressed mRNA in the presence of chemical substance/The level of expressed mRNA in the absence of chemical substance (yeast gene YCL009C): 0.9
The level of expressed mRNA in the presence of chemical substance/The level of expressed mRNA in the absence of chemical substance (yeast gene YCL064C): 1.7
level of expressed mRNA in the presence/in the absence of chemical substance (yeast gene YCR010C): 0.9
level of expressed mRNA in the presence/in the absence of chemical substance (yeast gene YCR034W): 0.1
The level of expressed mRNA in the presence of chemical substance/The level of expressed mRNA in the absence of chemical substance (yeast gene YCR036W): 2.6
The level of expressed mRNA in the presence of chemical substance/The level of expressed mRNA in the absence of chemical substance (yeast gene YCR048W): 0.8
The level of expressed mRNA in the presence of chemical substance/The level of expressed mRNA in the absence of chemical substance (yeast gene YCR098C): 1.4
The level of expressed mRNA in the presence of chemical substance/The level of expressed mRNA in the absence of chemical substance (yeast gene YDL124W): 3.3
The level of expressed mRNA in the presence of chemical substance/The level of expressed mRNA in the absence of chemical substance (yeast gene YDR009W): 1.3
The level of expressed mRNA in the presence of chemical substance/The level of expressed mRNA in the absence of chemical substance (yeast gene YDR019C): 0.4
level of expressed mRNA in the presence/in the absence of chemical substance (yeast gene YDR050C): 0.4
level of expressed mRNA in the presence/in the absence of chemical substance (yeast gene YDR123C): 0.5
level of expressed mRNA in the presence/in the absence of chemical substance (yeast gene YDR178W): 0.9
level of expressed mRNA in the presence/in the absence of chemical substance (yeast gene YDR277C): 0.2
level of expressed mRNA in the presence/in the absence of chemical substance (yeast gene YDR284C): 0.9
level of expressed mRNA in the presence/in the absence of chemical substance (yeast gene YDR345C): 0.2
The level of expressed mRNA in the presence of chemical substance/The level of expressed mRNA in the absence of chemical substance (yeast gene YDR380W): 0.2
level of expressed mRNA in the presence/in the absence of chemical substance (yeast gene YDR400W): 1.1
level of expressed mRNA in the presence/in the absence of chemical substance (yeast gene YDR408C): 0.3
level of expressed mRNA in the presence/in the absence of chemical substance (yeast gene YDR483W): 0.4
The level of expressed mRNA in the presence of chemical substance/The level of expressed mRNA in the absence of chemical substance (yeast gene YDR487C): 2.7
The level of expressed mRNA in the presence of chemical substance/The level of expressed mRNA in the absence of chemical substance (yeast gene YDR497C): 0.4
The level of expressed mRNA in the presence of chemical substance/The level of expressed mRNA in the absence of chemical substance (yeast gene YDR502C): 1.6
The level of expressed mRNA in the presence of chemical substance/The level of expressed mRNA in the absence of chemical substance (yeast gene YDR516C): 1.8
level of expressed mRNA in the presence/in the absence of chemical substance (yeast gene YEL063C): 0.8
The level of expressed mRNA in the presence of chemical substance/The level of expressed mRNA in the absence of chemical substance (yeast gene YER026C): 0.9
The level of expressed mRNA in the presence of chemical substance/The level of expressed mRNA in the absence of chemical substance (yeast gene YER053C): 1.3
The level of expressed mRNA in the presence of chemical substance/The level of expressed mRNA in the absence of chemical substance (yeast gene YER069W): 0.8
level of expressed mRNA in the presence/in the absence of chemical substance (yeast gene YER081W): 1.8
The level of expressed mRNA in the presence of chemical substance/The level of expressed mRNA in the absence of chemical substance (yeast gene YER096W): 7.5
level of expressed mRNA in the presence/in the absence of chemical substance (yeast gene YER120W): 0.8
